The NIST ThermoML archive (doi:10.1016/j.jct.2004.07.015)

How the values were obtained:
[1] = 101.33 kPa, Liquid
[2] = xn = mol fraction of the nth substance listed; conditions: 101.3 kPa, Liquid

C1COCO1 [1,3-dioxolane]
[1]
Conditions | mass density [kg/m3] | speed of sound [m/s]
298.15 K | 1058.98 | 1340.2
313.15 K | 1040 | 1270.9

CC(C)CO [2-methyl-1-propanol] + C1COCCO1
[2]
Conditions | mass density, 298.15 K [kg/m3] | mass density, 313.15 K [kg/m3] | speed of sound, 298.15 K [m/s] | speed of sound, 313.15 K [m/s]
x2 = 0.0559 | 809.27 | – | 1196.2 | –
x2 = 0.0612 | – | 798.12 | – | 1146
x2 = 0.0898 | – | 803.92 | – | 1149.5
x2 = 0.0943 | 817.3 | – | 1201.4 | –
x2 = 0.1946 | – | 825.35 | – | 1162.3
x2 = 0.1959 | 838.82 | – | 1215.5 | –
x2 = 0.2981 | 860.89 | – | 1229.7 | –
x2 = 0.3039 | – | 848.25 | – | 1176.2
x2 = 0.4033 | – | 869.73 | – | 1189.2
x2 = 0.4039 | 884.22 | – | 1245.1 | –
x2 = 0.5062 | 907.2 | – | 1260.6 | –
x2 = 0.5086 | – | 892.99 | – | 1203.6
x2 = 0.5674 | – | 906.3 | – | 1211.8
x2 = 0.603 | 929.49 | – | 1276.1 | –
x2 = 0.7018 | – | 937.3 | – | 1232
x2 = 0.7021 | 952.9 | – | 1292.4 | –
x2 = 0.7966 | 976 | – | 1308.7 | –
x2 = 0.8296 | – | 967.84 | – | 1251.9
x2 = 0.8879 | – | 982.25 | – | 1261
x2 = 0.8943 | 1000.57 | – | 1326 | –
x2 = 0.9298 | – | 992.74 | – | 1267.7
x2 = 0.9328 | 1010.53 | – | 1333 | –

C1COCO1 [1,3-dioxolane] + CC(C)(C)O
[2]
Conditions | mass density, 298.15 K [kg/m3] | mass density, 313.15 K [kg/m3] | speed of sound, 298.15 K [m/s] | speed of sound, 313.15 K [m/s]
x1 = 0.0495 | 789.79 | – | 1129.2 | –
x1 = 0.0567 | – | 775.49 | – | 1065.2
x1 = 0.0949 | – | 782.77 | – | 1071.1
x1 = 0.0965 | 798.83 | – | 1135.6 | –
x1 = 0.1973 | – | 803.78 | – | 1087.4
x1 = 0.1996 | 820.33 | – | 1151 | –
x1 = 0.2909 | 840.96 | – | 1165.8 | –
x1 = 0.2919 | – | 824.8 | – | 1103.5
x1 = 0.4039 | – | 851.81 | – | 1123.4
x1 = 0.4049 | 868.7 | – | 1186.2 | –
x1 = 0.4951 | – | 875.4 | – | 1141.2
x1 = 0.4972 | 892.83 | – | 1204.9 | –
x1 = 0.5948 | – | 903.12 | – | 1162.4
x1 = 0.5974 | 920.82 | – | 1226.8 | –
x1 = 0.6997 | – | 934.45 | – | 1187.1
x1 = 0.7033 | 952.73 | – | 1252.5 | –
x1 = 0.8031 | – | 967.86 | – | 1213.5
x1 = 0.8033 | 985.46 | – | 1279.3 | –
x1 = 0.8944 | 1017.75 | – | 1305.9 | –
x1 = 0.8959 | – | 1000.17 | – | 1239.6
x1 = 0.9439 | 1036.49 | – | 1321.3 | –
x1 = 0.9464 | – | 1018.99 | – | 1254.3

C1COCO1 [1,3-dioxolane] + CC(C)CO
[2]
Conditions | mass density, 298.15 K [kg/m3] | mass density, 313.15 K [kg/m3] | speed of sound, 298.15 K [m/s] | speed of sound, 313.15 K [m/s]
x1 = 0.0434 | – | 793.86 | – | 1140.5
x1 = 0.0675 | 810.83 | – | 1193.2 | –
x1 = 0.0922 | – | 802.94 | – | 1143.6
x1 = 0.0932 | 815.89 | – | 1195.3 | –
x1 = 0.1938 | – | 822.73 | – | 1151.2
x1 = 0.2005 | 837.99 | – | 1205.1 | –
x1 = 0.2946 | 858.48 | 843.76 | 1214.8 | 1159.9
x1 = 0.395 | 881.68 | – | 1226.7 | –
x1 = 0.3984 | – | 866.86 | – | 1170.5
x1 = 0.5044 | – | 892.29 | – | 1182.9
x1 = 0.5062 | 908.95 | – | 1241.8 | –
x1 = 0.6042 | – | 917.95 | – | 1196.4
x1 = 0.6065 | 935.18 | – | 1258.1 | –
x1 = 0.6962 | – | 943.18 | – | 1211.4
x1 = 0.6977 | 960.69 | – | 1274.3 | –
x1 = 0.7995 | 991.23 | – | 1295.4 | –
x1 = 0.8009 | – | 974.09 | – | 1230.6
x1 = 0.8928 | – | 1003.34 | – | 1249.5
x1 = 0.8957 | 1022.45 | – | 1316.5 | –
x1 = 0.9439 | – | 1020.41 | – | 1260.2
x1 = 0.9451 | 1039.33 | – | 1327.6 | –

CC(C)CO [2-methyl-1-propanol]
[1]
Conditions | mass density [kg/m3] | speed of sound [m/s]
298.15 K | 797.83 | 1188.5
313.15 K | 785.96 | 1138.4

C1COCCO1 [1,4-dioxane]
[1]
Conditions | mass density [kg/m3] | speed of sound [m/s]
298.15 K | 1027.96 | 1344.8
313.15 K | 1010.8 | 1279.8

CC(C)(C)O [2-methylpropan-2-ol]
[1]
Conditions | mass density [kg/m3] | speed of sound [m/s]
298.15 K | 780.86 | 1122.8
313.15 K | 765.16 | 1057.4

C1COCCO1 [1,4-dioxane] + CC(C)(C)O
[2]
Conditions | mass density, 298.15 K [kg/m3] | mass density, 313.15 K [kg/m3] | speed of sound, 298.15 K [m/s] | speed of sound, 313.15 K [m/s]
x1 = 0.0502 | 791.11 | – | 1133.5 | –
x1 = 0.0525 | – | 776.05 | – | 1069.8
x1 = 0.0802 | 797.29 | – | 1139.5 | –
x1 = 0.0886 | – | 783.75 | – | 1078.1
x1 = 0.2051 | – | 808.89 | – | 1102.3
x1 = 0.2164 | 826.41 | – | 1166.2 | –
x1 = 0.287 | – | 827.2 | – | 1118.9
x1 = 0.2915 | 843.19 | – | 1180.4 | –
x1 = 0.3926 | – | 851.46 | – | 1139.9
x1 = 0.3944 | 867.16 | – | 1201.4 | –
x1 = 0.4938 | – | 875.49 | – | 1160.8
x1 = 0.496 | 891.65 | – | 1222.4 | –
x1 = 0.592 | – | 899.61 | – | 1181.6
x1 = 0.5929 | 915.92 | – | 1243.8 | –
x1 = 0.6814 | 938.8 | – | 1264.1 | –
x1 = 0.6904 | – | 924.78 | – | 1202.7
x1 = 0.7994 | – | 953.91 | – | 1227.9
x1 = 0.8029 | 971.23 | – | 1293.2 | –
x1 = 0.8871 | – | 978.21 | – | 1250.3
x1 = 0.8893 | 995.28 | – | 1315.3 | –
x1 = 0.9287 | 1006.7 | – | 1325.5 | –
x1 = 0.9421 | – | 993.91 | – | 1264.2
